Assay results taken from patent US20200054608A1, “ALPHA ADRENERGIC AGONISTS FOR THE TREATMENT OF TISSUE TRAUMA” (Allergan, Inc., priority 2013, published 2020).

Experiments:
SKH1 hairless mice [1] = assay: UVB-induced sunburn model: erythema on back skin measured with a chromameter; format: in vivo
Method: (§1) A xenon arc lamp (Newport Corp, USA) was used as a source of UVB. SKH1 hairless mice, lying on their stomachs with their left sides covered, were exposed to 120 mJ/cm2 UVB radiation. Regions of back skin were treated topically with oxymetazoline hydrochloride 0.5% gel at 20 min, 4 hr or 8 hr post-UVB. An additional group had the vehicle applied topically at 20 min post UVB exposure. Erythema on the exposed and unexposed back was measured using a chromameter (Konica Minolta) at 2 and 4 hr post-UVB exposure. Skin samples were collected 48 hr following UVB exposure and examined histologically to assess the extent of injury.

SKH1 hairless mice [2] = assay: UVB-induced sunburn model: histological examination of skin samples 48 hr following UVB exposure; format: in vivo; conditions: for outcome of healing (overall healing, histology) / mice with overall epidermal healing fair to good: 48 hr; for outcome of healing (overall healing, histology): hydrochloride; for mice with overall epidermal healing fair to good: vehicle 0%
Method: as §1

## oxymetazoline hydrochloride
SKH1 hairless mice [1]; 0.5% topical gel applied 20 minutes following 120 mJ/cm2 UVB, 2 hr timepoint, p<0.001
  inhibition of erythema: almost completely inhibited the erythema
SKH1 hairless mice [1]; 0.5% topical gel applied 20 minutes following UVB, 4 hr post-UVB exposure
  inhibition of erythema: no inhibition of the erythema
SKH1 hairless mice [2]; 0.5% topical applied 20 minutes post UVB, 48 hours, n=6
  epidermal separation: reduced the occurrence and/or severity of epidermal separation
SKH1 hairless mice [2]; 0.5% topical applied 20 minutes post UVB, vs vehicle controls
  outcome of healing (overall healing, histology): potentially improved the outcome
SKH1 hairless mice [2]; 0.5% topical applied 20 minutes post UVB, vs vehicle controls, listed as oxymetazoline
  outcome of healing (overall healing, histology): slightly improved the outcome of healing
SKH1 hairless mice [2]; 0.5% topical applied 4 hours post UVB, 48 hours, n=6
  epidermal separation: reduced the occurrence and/or severity of epidermal separation
SKH1 hairless mice [2]; 0.5% topical applied 4 hours post UVB, vs concurrent and historical vehicle controls
  outcome of healing (overall healing, histology): more positive outcome
SKH1 hairless mice [2]; 0.5% topical applied 4 hours post UVB, vs concurrent and historical vehicle controls, listed as oxymetazoline
  outcome of healing (overall healing, histology): improved the outcome of healing
SKH1 hairless mice [2]; 0.5% topical applied 8 hours following injury, skin collected at 48 hours, vs vehicle-treated
  adaptive response in histological sections (epidermal proliferation, adaptive hyperplasia): greater degree of a positive adaptive response
SKH1 hairless mice [2]; 0.5% topical applied 8 hours following the injury, 48 hours, n=6
  epidermal hyperplasia (adaptive healing response): resulted in more individuals who had progressed to advanced healing
SKH1 hairless mice [2]; 0.5% topical applied 8 hours post UVB, 48 hours, n=6
  epidermal separation: reduced the occurrence and/or severity of epidermal separation
SKH1 hairless mice [2]; 0.5% topical applied 8 hours post UVB, vs concurrent and historical vehicle controls
  outcome of healing (overall healing, histology): more positive outcome
SKH1 hairless mice [2]; 0.5% topical applied 8 hours post UVB, vs concurrent and historical vehicle controls, listed as oxymetazoline
  outcome of healing (overall healing, histology): improved the outcome of healing
SKH1 hairless mice [2]; 0.5% topical applied at 20 minutes post UVB, n=6
  mice with overall epidermal healing fair to good: 33%
SKH1 hairless mice [2]; 0.5% topical applied at 4 hours post UVB, n=6
  mice with overall epidermal healing fair to good: 50%
SKH1 hairless mice [2]; 0.5% topical applied at 8 hours post UVB, n=6
  mice with overall epidermal healing fair to good: 67%
